Results taken from patent US20050282755A1, “Compositions having antimicrobial activity and uses thereof” (priority 2004, published 2005).
Values after ≈ are worked out from the molar mass of the structure shown. Non-standard residues stand in square brackets, D forms with d. Residues, ends and D or L forms follow the SMILES beside them. *: point of attachment. Lauroyl = CCCCCCCCCCCC(=O)*; Decanoyl = CCCCCCCCCC(=O)*

Columns and labels:
Assay type in all cases: cell-based
[1] = test system: Escherichia coli ATCC 25922; assay: MIC, NCCLS M7-A6 broth microdilution (Table 9, no superscript); conditions: ATCC 25922
Outline: (§1)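 Broth microdilution in cation-adjusted Mueller Hinton broth, log-phase inoculum giving 5×10^5 to 1×10^6 CFU/milliliter per well. Overnight incubation at 37° C. MIC taken as lowest peptide concentration with no visible turbidity versus a no-peptide control.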

[2] = test system: Staphylococcus epidermidis ATCC 12228; assay: as above; conditions: ATCC 12228
Outline: as §1

Salmonella dublin (Lane) = assay: as above
Outline: as §1

[3] = test system: Pseudomonas aeruginosa ATCC 27853; assay: as above; conditions: ATCC 27853
Outline: as §1

[4] = test system: Staphylococcus aureus ATCC 29213; assay: MIC, NCCLS M7-A6 broth microdilution, cation-adjusted Mueller Hinton broth (Table 9, no superscript); conditions: ATCC 29213
Outline: as §1

[5] = test system: Propionibacterium acnes ATCC 6919; assay: MIC, agar dilution method NCCLS M11-A6, Brucella agar, anaerobic (Table 9, superscript c); conditions: ATCC 6919
Outline: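 MIC taken as the lowest peptide level giving no colonies on the plate. Plates were inoculated to 1.5×10^8 CFU/milliliter, then kept anaerobically at 37° C. for 48-96 hours; method follows NCCLS M11-A6.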

[6] = test system: Candida albicans ATCC 18804; assay: MIC in yeasts, NCCLS M27-A2 broth microdilution, RPMI 1640 (Table 9, letter e); conditions: ATCC 18804
Method: Briefly, RPMI 1640 supplemented with glutamine and phenol red as a pH indicator was used in the broth microdilution method. A 96-well plate was inoculated so that the final inoculum of yeast for each well contained between 0.5×10^3 and 2.5×10^3 CFU/milliliter. […] Plates were incubated for 24 to 48 hours at 37° C. The lowest concentration of peptide that contained no visible growth was determined as the MIC. MIC values that utilized this method of MIC determination are indicated in Table 9 with a subscript letter “e.” “Peptide Number” corresponds to peptide compositions and corresponding designations in Table 3.

SMILES	MIC E. coli [1] [µg/mL]	MIC S. epidermidis [2] [µg/mL]	MIC S. dublin (Salmonella dublin (Lane)) [µg/mL]	MIC P. aeruginosa [3] [µg/mL]	MIC S. aureus [4] [µg/mL]	MIC P. acnes [5] [c ug/mL]	MIC C. albicans [6] [e ug/mL]
CCCCCCCCCCCC(=O)N[C@@H](CCCNC(=N)N)C(=O)N[C@@H](CO)C(=O)N[C@@H](CCCNC(=N)N)C(=O)N[C@@H](Cc1c[nH]c2ccccc12)C(=O)N[C@@H](CCCNC(=N)N)C(=O)N[C@@H](CC(=O)O)C(=O)N[C@@H](Cc1c[nH]c2ccccc12)C(=O)N[C@@H](C)C(=O)N[C@@H](CCCNC(=N)N)C(=O)N[C@@H](CC(N)=O)C(=O)N[C@@H](Cc1c[nH]c2ccccc12)C(=O)N[C@@H](CCSC)C(=O)N[C@@H](CCCNC(=N)N)C(N)=O [Peptide 143, Lauryl-RSRWRDWARNWMR-NH2] (Lauroyl-RSRWRDWARNWMR-NH2)	4 (≈ 1.94 µM)	2 (≈ 0.972 µM)	4 (≈ 1.94 µM)	16 (≈ 7.78 µM)	4 (≈ 1.94 µM)	2	4
CCCCCCCCCCCC(=O)N[C@@H](CCCNC(=N)N)C(=O)N[C@@H](CO)C(=O)N[C@@H](CCCNC(=N)N)C(=O)N[C@@H](Cc1c[nH]c2ccccc12)C(=O)N[C@@H](CCCNC(=N)N)C(=O)N[C@@H](CC(=O)O)C(=O)N[C@H](C(=O)N[C@@H](C)C(N)=O)C(C)C [Peptide 102, Lauryl-RSRWRDVA-NH2] (Lauroyl-RSRWRDVA-NH2)	>64	8 (≈ 6.52 µM)	>64	64 (≈ 52.2 µM)	4 (≈ 3.26 µM)	>64	64
CCCCCCCCCCCC(=O)N[C@H](CCCNC(=N)N)C(=O)N[C@H](CO)C(=O)N[C@H](C)C(=O)N[C@H](Cc1c[nH]c2ccccc12)C(=O)N[C@H](CCCNC(=N)N)C(=O)N[C@H](CC(=O)O)C(=O)N[C@@H](C(=O)N[C@H](C)C(=O)N[C@H](CCCNC(=N)N)C(=O)N[C@H](CC(N)=O)C(=O)N[C@H](Cc1ccccc1)C(=O)N[C@H](CCSC)C(=O)N[C@H](CCCNC(=N)N)C(N)=O)C(C)C [Peptide 238, Lauryl-rsawrdvarnfmr-NH2] (Lauroyl-[dR][dS][dA][dW][dR][dD][dV][dA][dR][dN][dF][dM][dR]-NH2)	8 (≈ 4.33 µM)	8 (≈ 4.33 µM)	8 (≈ 4.33 µM)	64 (≈ 34.7 µM)	8 (≈ 4.33 µM)	32	16
CSCC[C@H](NC(=O)[C@H](Cc1ccccc1)NC(=O)[C@H](CC(N)=O)NC(=O)[C@H](CCCNC(=N)N)NC(=O)[C@H](CO)NC(=O)[C@H](Cc1c[nH]c2ccccc12)NC(=O)[C@H](CC(=O)O)NC(=O)[C@H](CCCNC(=N)N)NC(=O)[C@H](Cc1c[nH]c2ccccc12)NC(=O)[C@H](CCCNC(=N)N)NC(=O)[C@H](CO)NC(=O)[C@H](CCCNC(=N)N)NC(=O)CNC(=O)[C@@H](NC(=O)[C@H](CCCNC(=N)N)NC(=O)[C@H](CO)NC(=O)[C@@H](NC(=O)[C@H](CCCNC(=N)N)NC(=O)[C@@H](NC(=O)[C@H](C)NC(=O)[C@H](C)NC(=O)[C@H](CCCNC(=N)N)NC(=O)[C@H](CCCNC(=N)N)NC(=O)[C@H](CCCNC(=N)N)NC(=O)[C@@H](N)CCCNC(=N)N)[C@@H](C)O)C(C)C)[C@@H](C)O)C(=O)N[C@@H](CCCNC(=N)N)C(=O)N[C@@H](C)C(=O)N[C@@H](C)C(=O)N[C@@H](CCCNC(=N)N)C(=O)N[C@@H](CCCNC(=N)N)C(=O)N[C@@H](CCCNC(=N)N)C(=O)N[C@@H](CCCNC(=N)N)C(N)=O [Peptide 12] (H-RRRRAATRVSRTGRSRWRDWSRNFMRAARRRR-NH2)	–	–	32 (≈ 7.72 µM)	–	16 (≈ 3.86 µM)	>64	>64
CCCCCCCCCCCC(=O)N[C@H](CO)C(=O)N[C@H](CCCNC(=N)N)C(=O)N[C@H](Cc1c[nH]c2ccccc12)C(=O)N[C@H](CCCNC(=N)N)C(=O)N[C@H](CC(=O)O)C(=O)N[C@@H](C(=O)N[C@H](C)C(=O)N[C@H](CCCNC(=N)N)C(=O)N[C@H](CC(N)=O)C(=O)N[C@H](Cc1ccccc1)C(=O)N[C@H](CC(C)C)C(=O)N[C@H](CCCNC(=N)N)C(N)=O)C(C)C [Peptide 212, Lauryl-srwrdvarnflr-NH2] (Lauroyl-[dS][dR][dW][dR][dD][dV][dA][dR][dN][dF][dL][dR]-NH2)	8 (≈ 4.55 µM)	2 (≈ 1.14 µM)	4 (≈ 2.28 µM)	64 (≈ 36.4 µM)	4 (≈ 2.28 µM)	2	–
CCCCCCCCCCCC(=O)N[C@@H](CCCNC(=N)N)C(=O)N[C@@H](CO)C(=O)N[C@@H](CCCNC(=N)N)C(=O)N[C@@H](Cc1c[nH]c2ccccc12)C(=O)N[C@@H](CCCNC(=N)N)C(=O)N[C@@H](CC(=O)O)C(=O)N[C@@H](Cc1c[nH]c2ccccc12)C(=O)N[C@@H](CO)C(=O)N[C@@H](CCCNC(=N)N)C(=O)N[C@@H](CC(N)=O)C(=O)N[C@@H](Cc1ccccc1)C(=O)N[C@@H](CCSC)C(=O)N[C@@H](CCCNC(=N)N)C(N)=O [Peptide 87, Lauryl-RSRWRDWSRNFMR-NH2] (Lauroyl-RSRWRDWSRNFMR-NH2)	–	–	8 (≈ 3.93 µM)	–	4 (≈ 1.97 µM)	>64	16
CCCCCCCCCCCC(=O)N[C@@H](CCCNC(=N)N)C(=O)N[C@@H](Cc1c[nH]c2ccccc12)C(=O)N[C@@H](CCCNC(=N)N)C(=O)N[C@@H](CC(=O)O)C(=O)N[C@H](C(=O)N[C@@H](C)C(=O)N[C@@H](CCCNC(=N)N)C(N)=O)C(C)C [Peptide 105, Lauryl-RWRDVAR-NH2] (Lauroyl-RWRDVAR-NH2)	32 (≈ 28.1 µM)	8 (≈ 7.02 µM)	>32	32 (≈ 28.1 µM)	16 (≈ 14 µM)	32	–
CCCCCCCCCCCC(=O)N[C@H](CCCNC(=N)N)C(=O)N[C@H](Cc1c[nH]c2ccccc12)C(=O)N[C@H](CCCNC(=N)N)C(=O)N[C@H](C)C(=O)N[C@@H](C(=O)N[C@H](C)C(=O)N[C@H](CCCNC(=N)N)C(N)=O)C(C)C [Peptide 246, Lauryl-rwravar-NH2] (Lauroyl-[dR][dW][dR][dA][dV][dA][dR]-NH2)	32 (≈ 29.2 µM)	2 (≈ 1.83 µM)	>64	>64	4 (≈ 3.65 µM)	32	–
CCCCCCCCCC(=O)N[C@H](CCCNC(=N)N)C(=O)N[C@H](CO)C(=O)N[C@H](CCCNC(=N)N)C(=O)N[C@H](Cc1c[nH]c2ccccc12)C(=O)N[C@H](CCCNC(=N)N)C(=O)N[C@H](CC(=O)O)C(=O)N[C@@H](C(=O)N[C@H](C)C(=O)N[C@H](CCCNC(=N)N)C(=O)N[C@H](CC(N)=O)C(=O)N[C@H](Cc1ccccc1)C(=O)N[C@H](CCSC)C(=O)N[C@H](CCCNC(=N)N)C(N)=O)C(C)C [Peptide 208, Decanyl-rsrwrdvarnfmr-NH2] (Decanoyl-[dR][dS][dR][dW][dR][dD][dV][dA][dR][dN][dF][dM][dR]-NH2)	>64	>64	8 (≈ 4.2 µM)	>64	4 (≈ 2.1 µM)	2	–
CCCCCCCCCCCC(=O)N[C@H](CCCNC(=N)N)C(=O)N[C@H](CO)C(=O)N[C@H](CCCNC(=N)N)C(=O)N[C@H](Cc1c[nH]c2ccccc12)C(=O)N[C@H](CCCNC(=N)N)C(=O)N[C@H](CC(=O)O)C(=O)N[C@@H](C(=O)N[C@H](C)C(=O)N[C@H](CCCNC(=N)N)C(=O)N[C@H](CC(N)=O)C(=O)N[C@H](Cc1ccccc1)C(=O)N[C@H](CC(C)C)C(N)=O)C(C)C [Peptide 211, Lauryl-rsrwrdvarnfl-NH2] (Lauroyl-[dR][dS][dR][dW][dR][dD][dV][dA][dR][dN][dF][dL]-NH2)	8 (≈ 4.55 µM)	2 (≈ 1.14 µM)	4 (≈ 2.28 µM)	64 (≈ 36.4 µM)	4 (≈ 2.28 µM)	4	–
CCCCCCCCCCCC(=O)N[C@H](CCCNC(=N)N)C(=O)N[C@H](CO)C(=O)N[C@H](CCCNC(=N)N)C(=O)N[C@H](Cc1c[nH]c2ccccc12)C(=O)N[C@H](CCCNC(=N)N)C(=O)N[C@H](C)C(=O)N[C@@H](C(=O)N[C@H](C)C(=O)N[C@H](CCCNC(=N)N)C(=O)N[C@H](CC(N)=O)C(=O)N[C@H](Cc1ccccc1)C(=O)N[C@H](CC(C)C)C(=O)N[C@H](CCCNC(=N)N)C(N)=O)C(C)C [Peptide 225, Lauryl-rsrwravarnflr-NH2] (Lauroyl-[dR][dS][dR][dW][dR][dA][dV][dA][dR][dN][dF][dL][dR]-NH2)	16 (≈ 8.56 µM)	2 (≈ 1.07 µM)	1 (≈ 0.535 µM)	16 (≈ 8.56 µM)	1 (≈ 0.535 µM)	8	–
